Measurements as given in patent US8367829B2, “Bi-functional pyrazolopyridine compounds” (Gilead Sciences, Inc., priority 2010, dated 2013).

Columns and labels:
Human recombinant PDE4B2 = target: T1, Human recombinant PDE4B2 (Homo sapiens, UniProt Q07343); assay: Inhibition of PDE4B2 enzyme activity (PDE Glo Assay); assay type: biochemical; conditions: human recombinant PDE4B2, 50 nM cAMP; read-out: PDE4 IC50
T1 construct: purchased BPS Bioscience
Description: Inhibition of PDE4B4 Enzyme Activity
The inhibitory activity of test compounds were determined using the PDE Glo Assay (Promega, V1361). The PDE-Glo Reaction Buffer was prepared (1 mL 5× buffer+4 mL water) and 150 nM solution of test compound dissolved in the Reaction Buffer, followed by 1:3 serial dilutions into Reaction Buffer. […] Human recombinant PDE4B2 (BPS Bioscience) was added to test compound in Reaction Buffer at a concentration of 0.12 nM per reaction. The enzyme and test compound were pre-incubated together at rt for 10 min. 50 nM of the enzyme substrate cAMP was then added to initiate the enzyme reaction, with the reaction terminated after one hour. Termination Buffer (1 mL 5× termination buffer+3.9 mL water+100 μL of 100 mM IBMX (ICN Chemicals, in DMSO)), was added to each reaction well to terminate the reaction. Detection Buffer (1 mL 5×PDE-Glo Detection buffer+3.96 mL water+40 μL PKA (supplied in kit)) was added to the cAMP-enzyme-test compound mix and this secondary reaction proceeded for 20 minutes at rt. An equal volume of Kinase Glo Reagent was then added to the reaction mixture and after 10 min luminescence was measured using a luminometer (EnVision, 0.1 sec read for luminescence). Luminescence values were […] related to levels of cAMP in the reaction mixture. Data were plotted as relative light units (RLU) versus test compound concentration and the IC50 determined using GraphPad Prism 5.0, using a nonlinear curve fit in a single-site binding model.
IC50 determinations for the compounds presented above are seen in the first column of Table 1 (PDE4 IC50).

[1] = target: T2, human recombinant beta-2 adrenoreceptors (Homo sapiens, UniProt P07550); assay: Beta-2 adrenoceptor binding assay, displacement of [3H](−)CGP-12177; conditions: CHO cells expressing human beta-2 adrenoreceptors, [3H](−)CGP-12177 0.3 nM, 120 min
T2 construct: expressed in transfected cells; host or cells: CHO cells
T2 sequence (P07550 whole entry): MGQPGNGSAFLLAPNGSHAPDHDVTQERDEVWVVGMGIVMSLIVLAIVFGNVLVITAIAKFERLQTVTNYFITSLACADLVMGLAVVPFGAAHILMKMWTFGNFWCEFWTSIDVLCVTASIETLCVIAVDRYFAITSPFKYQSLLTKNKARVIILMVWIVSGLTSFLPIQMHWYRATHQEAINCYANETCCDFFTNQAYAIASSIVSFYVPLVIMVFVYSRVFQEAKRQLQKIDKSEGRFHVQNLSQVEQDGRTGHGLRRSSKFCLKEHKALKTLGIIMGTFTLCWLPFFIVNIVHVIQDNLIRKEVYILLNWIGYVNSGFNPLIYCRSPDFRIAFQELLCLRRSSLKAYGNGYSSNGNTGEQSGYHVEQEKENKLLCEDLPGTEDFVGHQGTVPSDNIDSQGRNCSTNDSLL
Description: Beta-2 Adrenoceptor Binding Assay
Test compounds were incubated for 120 min with Chinese hamster oocyte (CHO) cells expressing the human recombinant beta-2 adrenoreceptors. Binding of test compounds to the beta-2 adrenoreceptors was determined by measuring the displacement of the radiolabeled ligand [^3H](−)CGP-12177 (0.3 nM) from the receptor measured by a scintillation counting. Concentration response curves were generated for test compounds and the IC50 (molar concentration of the compound which produced 50% inhibition for the maximal response for that compound) was determined. These assays were performed using a protocol based on the original description of the assay by Joseph et al., (2004) Naun.-Sch. Arch. Pharm.; 369:525-532.
IC50 determinations for the compounds presented above are seen in the second column of Table 1 (Beta 2 IC50).

[2] = target: T2, human recombinant beta-2 adrenoreceptors; assay: Functional agonism of human recombinant beta-2 adrenoreceptors expressed in CHO cells (cAMP, HTRF); assay type: cell-based; conditions: cAMP elevation, 30 min
Description: Functional Agonism of Human Recombinant Beta-2 Adrenoreceptors Expressed in Chinese Hamster Oocytes (CHO)
Test compounds were incubated for 30 min with CHO cells expressing the human recombinant beta-2 adrenoreceptors. Agonism of the receptor was measured by the elevation of intracellular cyclic-AMP over control levels detected using a homogeneous time resolved fluorescence (HTRF) format. Compounds were determined to be “full” or “partial” agonists based on the maximum level of cAMP accumulated compared to the control compound isoproterenol which is a full agonist in this assay system. Concentration response curves were generated for test compounds and the EC50 (molar concentration of the agonist which produced 50% of the maximal response for that compound) was determined. These assays were performed using a protocol based on the original description of the assay by Baker, J. G. (2005) Brit. J. Pharmacol.; 144:317-322.
EC50 determinations for the compounds presented above are seen in the third column of Table 1 (Beta 2 EC50).

[3] = tested on: LPS-induced TNF-α release from human peripheral blood mononuclear cells (PBMC); assay: Inhibition of LPS-induced TNF-α release from human PBMC; assay type: cell-based; conditions: LPS 0.4 ng/mL, 6 h, presence or absence of ICI-118551 not given
Excerpt: Inhibition of Lipopolysaccharide (LPS)-Induced Tumour Necrosis Factor Alpha (TNF-α) Release from Human Peripheral Blood Mononuclear Cells (PBMC)
Human whole blood was drawn from donors and cell purification initiated within two hours. Peripheral blood mononuclear cells (PBMC) were purified using a standard Ficoll gradient purification technique and aliquoted at a concentration of 100,000 cells/well in 96 well plates. Beta-2 adrenoreceptor agonists are also anti-inflammatory for some immune cells expressing the receptor and in this assay they can inhibit tumor necrosis factor-alpha (TNF-α) production. Therefore PBMC were pre-incubated for 30 min in the presence of the beta-2 adrenoreceptor antagonist ICI-118551 (3-(isopropylamino)-1-[(7-methyl-4-indanyl)oxy]butan-2-ol) (10 μM) to determine the PDE4 directed activity of test compounds, and in the absence of ICI-118551 for the combined PDE4 and beta-2 receptor directed activity. Test compounds were dissolved in DMSO and diluted in buffer (final DMSO concentration of 0.1% v/v) and were then added to the cell suspensions and pre-incubated for a further 1 h at 37° C. LPS solution was then added (0.4 ng/mL) and the cells incubated for a further 6 h. At the end of the incubation period the cell supernatants were collected and TNF-α was measured using a Procarta Cytokine Assay Kit (Affymetrix, Santa Clara, Calif.) according to the manufacturers' instructions. Data were analyzed using MiraiBio Masterplex QT v4.0 software (MasterPlex Version 1.0.1.18 Copyright 2008, Hitachi Software Engineering Co., Ltd) and used to extrapolate Mean Fluorescence Intensity (MFI) into concentrations of TNF-α and mean values from replicate wells were determined. Inhibition curves were plotted using a nonlinear curve fit employing a single-site binding model to determine the IC50 value for each test compound in the presence or absence of ICI-118551 using GraphPad Prism 5 for Windows, version 5.02 (GraphPad Software, San Diego Calif.).
EC50 determinations for the compounds presented above are seen in the fourth column of Table 1 (PBMC TNF EC50).

T1 sequence (Q07343 1-564 isoform Q07343-2): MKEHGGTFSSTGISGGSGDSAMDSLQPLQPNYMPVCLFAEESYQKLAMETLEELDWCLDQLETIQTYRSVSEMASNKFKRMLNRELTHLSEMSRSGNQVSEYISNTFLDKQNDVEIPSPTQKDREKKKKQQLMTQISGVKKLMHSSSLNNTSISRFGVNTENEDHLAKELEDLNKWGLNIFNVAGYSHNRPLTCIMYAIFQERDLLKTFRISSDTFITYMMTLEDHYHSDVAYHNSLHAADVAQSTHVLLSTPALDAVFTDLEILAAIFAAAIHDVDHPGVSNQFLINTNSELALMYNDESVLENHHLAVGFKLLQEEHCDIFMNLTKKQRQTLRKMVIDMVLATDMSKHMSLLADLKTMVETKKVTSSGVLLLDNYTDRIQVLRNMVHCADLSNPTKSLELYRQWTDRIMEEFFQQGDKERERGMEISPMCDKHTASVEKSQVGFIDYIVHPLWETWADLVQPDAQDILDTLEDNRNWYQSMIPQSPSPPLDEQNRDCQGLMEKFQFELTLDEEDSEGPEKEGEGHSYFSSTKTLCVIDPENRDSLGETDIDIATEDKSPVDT

IC50 (Human recombinant PDE4B2) [nM] | IC50 [1] [nM] | EC50 [2] [nM] | Structure (SMILES) | EC50 [3] [nM]
< 100 | > 300 | < 100 | CCc1nc2c(cnn2CC)c(NC2CCOCC2)c1CNC(=O)CCCCCCCNC[C@H](O)c1ccc(O)c2[nH]c(=O)ccc12 [Example 10, (R)—N-[[1,6-Diethyl-4-[(tetrahydro-2H-pyran-4-yl)amino]-1H-pyrazolo[3,4-b]pyridin-5-yl]methyl]-8-[[2-hydroxy-2-(8-hydroxy-2-oxo-1,2-dihydroquinolin-5-yl)ethyl]amino]octanamide] | < 100
< 100 | < 100 | < 100 | CCc1nc2c(cnn2CC)c(NC2CCOCC2)c1CNC(=O)Nc1ccc(C#CCCCNC[C@H](O)c2ccc(O)c3[nH]c(=O)ccc23)cc1 [Example 11] | < 100
< 100 | < 100 | < 100 | CCc1nc2c(cnn2CC)c(NC2CCOCC2)c1CNC(=O)Nc1ccc(CCCCCNC[C@H](O)c2ccc(O)c3[nH]c(=O)ccc23)cc1 [Example 12, (R)-1-((1,6-diethyl-4-((tetrahydro-2H-pyran-4-yl)amino)-1H-pyrazolo[3,4-b]pyridin-5-yl)methyl)-3-(4-(5-((2-hydroxy-2-(8-hydroxy-2-oxo-1,2-dihydroquinolin-5-yl)ethyl)amino)pentyl)phenyl)urea] | < 100
